Earlier results, collected in patent publication US12168054B2 (SYNDAX PHARMACEUTICALS, INC., priority 2017, dated 2024).

Experiments:
[1] = in vivo
[2] = test system: histone acetylation; details: following the administration of entinostat

In the case of `Nc1ccccc1NC(=O)c1ccc(CNC(=O)OCc2cccnc2)cc1` [Entinostat, N-(2-aminophenyl)-4-[N-(pyridine-3-yl)methoxycarbonylamino-methyl]-benzamide], the half-life [1] is listed as “about 100 hours” and the “persistence of changes in histone acetylation following administration” value [2] is listed as “persist for several weeks”.
